Results reported in the supplement of paper PMC10307832.

What was measured:
Assay in all cases: relative viability (nuclei count vs DMSO), 5 days (fraction); higher = more cells survive
XMD8-85 + Olaparib = compound: CN1CCN(CC1)C2=CC(=C(C=C2)NC3=NC=C4C(=N3)N(C5=CC=CC=C5C(=O)N4C)C)OC [XMD8-85] + O=C(c1cc(Cc2n[nH]c(=O)c3ccccc23)ccc1F)N1CCN(C(=O)C2CC2)CC1 [Olaparib] (partner 8 µM)
Procedure, shortened: (§1)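 Five library-drug doses in √10 steps were combined with a fixed anchor-drug dose, or a single drug was given alone, by pin tool to lung cancer cell lines in 1536-well plates the day after seeding. Nuclei were stained and counted after 5 days. Relative viability is the nuclei count in treated wells over that in vehicle wells, taken as the median of duplicate plates.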

4EGI-1 + Trametinib = compound: O=C(O)C(Cc1ccccc1[N+](=O)[O-])=NNc1nc(-c2ccc(Cl)c(Cl)c2)cs1 (mixture of isomers) [4EGI-1] + CC(=O)Nc1cccc(-n2c(=O)n(C3CC3)c(=O)c3c(Nc4ccc(I)cc4F)n(C)c(=O)c(C)c32)c1 [Trametinib] (partner 0.02 µM)
Procedure, shortened: as §1

4EGI-1 + OSI-027 = compound: O=C(O)C(Cc1ccccc1[N+](=O)[O-])=NNc1nc(-c2ccc(Cl)c(Cl)c2)cs1 (mixture of isomers) [4EGI-1] + COc1cccc2cc(-c3nc([C@H]4CC[C@H](C(=O)O)CC4)n4ncnc(N)c34)[nH]c12 [OSI-027] (partner 0.5 µM)
Procedure, shortened: as §1

4EGI-1 + Crizotinib = compound: O=C(O)C(Cc1ccccc1[N+](=O)[O-])=NNc1nc(-c2ccc(Cl)c(Cl)c2)cs1 (mixture of isomers) [4EGI-1] + C[C@@H](Oc1cc(-c2cnn(C3CCNCC3)c2)cnc1N)c1c(Cl)ccc(F)c1Cl [Crizotinib] (partner 1 µM)
Procedure, shortened: as §1

Row | Cell Line | relative viability (XMD8-85 + Olaparib; first compound 0.08 µM) | relative viability (XMD8-85 + Olaparib; first compound 0.253 µM) | relative viability (XMD8-85 + Olaparib; first compound 0.8 µM) | relative viability (XMD8-85 + Olaparib; first compound 2.53 µM) | relative viability (XMD8-85 + Olaparib; first compound 8 µM) | relative viability (4EGI-1 + Trametinib; first compound 0.5 µM) | relative viability (4EGI-1 + Trametinib; first compound 1.581 µM) | relative viability (4EGI-1 + Trametinib; first compound 5 µM) | relative viability (4EGI-1 + Trametinib; first compound 15.81 µM) | relative viability (4EGI-1 + Trametinib; first compound 50 µM) | relative viability (4EGI-1 + OSI-027; first compound 0.5 µM) | relative viability (4EGI-1 + OSI-027; first compound 5 µM) | relative viability (4EGI-1 + OSI-027; first compound 15.81 µM) | relative viability (4EGI-1 + OSI-027; first compound 50 µM) | relative viability (4EGI-1 + Crizotinib; first compound 0.5 µM) | relative viability (4EGI-1 + Crizotinib; first compound 1.581 µM) | relative viability (4EGI-1 + Crizotinib; first compound 5 µM) | relative viability (4EGI-1 + Crizotinib; first compound 15.81 µM) | relative viability (4EGI-1 + Crizotinib; first compound 50 µM) | relative viability (4EGI-1 + OSI-027; first compound 1.581 µM)
1 | NCI-H2347 | 0.55 | 0.598 | 0.617 | 0.619 | 0.559 | 0.304 | 0.27 | 0.309 | 0.298 | 0.302 | 0.404 | 0.475 | 0.389 | 0.405 | 0.841 | 0.667 | 0.753 | 0.567 | 0.556 | –
2 | NCI-H2170 | 0.51 | 0.627 | 0.599 | 0.601 | 0.532 | 0.956 | 0.773 | 0.876 | 0.866 | 0.645 | 0.785 | 0.713 | 0.558 | 0.391 | 1.24 | 1.15 | 1.15 | 0.902 | 0.586 | 0.63
3 | LXF-289 | 0.972 | 1.08 | 1.09 | 0.94 | 0.915 | 0.716 | 0.669 | 0.61 | 0.622 | 0.583 | 0.825 | 0.758 | 0.756 | 0.519 | 0.889 | 0.803 | 0.817 | 0.672 | 0.332 | 0.809
4 | NCI-H1666 | 0.697 | 0.716 | 0.742 | 0.773 | – | 0.914 | 0.822 | 0.811 | 0.774 | 0.66 | 0.841 | 0.948 | 0.606 | 0.433 | 1.12 | 1.03 | 1.19 | 0.632 | 0.253 | 0.805
5 | HCC-78 | 0.916 | 0.843 | 0.99 | 0.814 | 0.775 | 1.18 | – | 0.733 | 0.674 | 0.788 | 0.356 | 0.38 | 0.34 | 0.362 | 0.365 | 0.258 | 0.371 | 0.286 | 0.373 | –
6 | NCI-H2126 | 0.958 | 0.897 | 0.954 | 0.889 | 0.94 | 0.552 | 0.553 | 0.506 | 0.463 | 0.384 | 0.721 | 0.778 | 0.572 | 0.511 | 1.03 | 1.05 | 1.03 | 1.03 | 0.777 | 0.697
7 | NCI-H1993 | – | 0.942 | 1 | 1.07 | 0.792 | 0.654 | 0.49 | 0.504 | 0.607 | 0.432 | 0.495 | 0.627 | 0.611 | 0.577 | 0.943 | 0.776 | 0.92 | 0.629 | 0.688 | 0.528
8 | LOU-NH91 | 0.944 | 0.922 | 0.917 | 0.92 | 0.695 | 0.812 | – | 0.764 | 0.704 | 0.724 | 0.737 | 0.752 | 0.432 | 0.675 | 0.788 | – | 0.72 | 0.508 | 0.55 | –
